Results: US20220380402A1, “6-HYDRAZINOADENOSINE COMPOUNDS WITH A2A ADENOSINE RECEPTOR AGONIST ACTIVITY” (ACADEMY OF MILITARY MEDICAL SCIENCES, priority 2019, published 2022)

Tests used:
[1] = target: T1, A2A adenosine receptor (Homo sapiens, UniProt P29274); experiment: Radioligand binding test ([3H]CGS21680 displacement, hA2A HEK-293 cell membrane); details: calculated from IC50 by Cheng and Prusoff equation; [3H]CGS21680 25 nM, Km 22 nM; 25° C., 90 minutes
T1 construct: purchased PerkinElmer Research Products (Boston, Mass.); host or cells: HEK-293 cells, stably transfected; membrane preparation
T1 sequence (P29274 whole entry): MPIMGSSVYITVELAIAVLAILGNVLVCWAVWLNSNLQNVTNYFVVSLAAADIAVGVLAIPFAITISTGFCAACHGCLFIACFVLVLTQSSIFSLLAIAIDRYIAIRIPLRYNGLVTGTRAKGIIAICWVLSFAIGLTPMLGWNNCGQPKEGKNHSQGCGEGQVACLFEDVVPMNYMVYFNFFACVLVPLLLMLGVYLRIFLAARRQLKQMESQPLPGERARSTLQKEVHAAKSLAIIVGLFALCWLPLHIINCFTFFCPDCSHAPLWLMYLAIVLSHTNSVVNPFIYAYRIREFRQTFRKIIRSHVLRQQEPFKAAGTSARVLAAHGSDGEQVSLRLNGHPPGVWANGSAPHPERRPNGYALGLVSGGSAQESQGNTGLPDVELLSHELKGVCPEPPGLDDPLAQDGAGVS
Method: [3H]CGS21680 (2-[p-(2-carboxyethyl)phenylethylamino]-5′-N-ethylformamidoadenosine, [carboxy-1-ethyl-3H(N)]; 250 μCi) was purchased from PerkinElmer Research Products (Boston, Mass.).
Cell membrane stably transfected with (human) A2A adenosine receptor was prepared in HEK-293 cells. The cell membrane was obtained from PerkinElmer Research Products (Boston, Mass.).
CGS21680 (2-[p-(2-carboxyethyl)phenylethylamino]-5′-N-ethylformamidoadenosine) was purchased from Selleck (Shanghai, CN).
The A2A adenosine receptors used were all expressed in the cell membrane. […] The specific binding percentage of [3H]CGS21680 was calculated according to the CPM value, % specific binding of [3H]CGS21680=(CPMsample−CPMLow Control)/(CPMHigh Control−CPMLow Control)*100, in which
High Control was 0.5% DMSO, Low Control was 100 μM CGS21680. The IC50 value was calculated based on the compound concentration and the specific binding percentage of [3H]CGS21680 by curve fitting.
The inhibition constant (Ki) value was calculated from the IC50 value according to the Cheng and Prusoff equation, Ki=IC50/(1+[S]/Km), in which [S] was the concentration of the radioligand (25 nM), and Km was the human A2AAR dissociation constant (22 nM) of [3H]CGS21680. The inhibition constant Ki values for Compounds 1 to 20 of the present invention binding to A2A adenosine receptor were shown in Table 1.

[2] = target: human adenosine receptor A2A (Homo sapiens, UniProt P29274); experiment: Adenosine receptor A2A cAMP test (LANCE Ultra cAMP, hADORA2A-HEK293 cells); type: cell-based
Chain of human adenosine receptor A2A (P29274 whole entry): as above
Source text: Experimental reagents and consumables: DMEM/F12, G418, Penicillin-Streptomycin, Versene Solution, HEPES, Hank's Buffered Saline Solution, PBS (pH 7.4, 1×, sterile), FBS, BSA Stabilizer 7.5%, Rolipram, NECA, were purchased from Gibico, Hyclone and Sigma, respectively. LANCE® Ultra cAMP kit (Eu-cAMP tracer, Ulight-anti-cAMP reagent, cAMP detection buffer) and hADORA2A-HEK293 cells were purchased from PerkinElmer Research Products (Boston, Mass.). All other reagents were of analytical grade and obtained from commercial sources. 384-well polypropylene microplate and 384-well white solid plate were purchased from Labcyte and Corning, respectively.
Cells stably expressing human adenosine receptor A2A (hADORA2A-HEK293 cells) were cultured in DMEM/F12 medium containing 10% FBS, 1× Penicillin-Streptomycin and 400 μg/ml G418 in a 37° C., 5% CO2 environment. Before the experiment, the cells were digested with Versene solution, and the cells were collected by centrifugation at 200 g at room temperature for 5 minutes, and finally resuspended with detection buffer (Hank's buffered saline solution, containing 5 mM HEPES, 0.1% BSA stabilizer and 10 μM Rolipram, pH 7.4). TECAN automated pipetting workstation was used to prepare a compound source plate by 3-fold diluting the compound in a 384-well polypropylene microplate with DMSO to form 11 concentration points, in which the 11 concentration points of the compound were 10 mM, 3.33 mM, 1.11 mM, 0.37 mM, 0.12 mM, 0.041 mM, 0.013 mM, 4.57×10^−3 mM, 1.52×10^−3 mM, 5×10^−4 mM and 1.7×10^−4 mM, respectively. Echo ultrasonic pipetting system (Labcyte) was used to transfer the test compound from the compound source plate to the detection plate, in which the volume of the compound transferred was 10 nl/well. The hADORA2A-HEK293 cell suspension was diluted with detection buffer to 30,000 cells/ml, and the cell suspension was transferred to the detection plate at a volume of 10 μl/well (300 cells/well). The detection plate was centrifuged at 150 g for 1 minute and pre-incubated at room temperature for 30 minutes. […] EnVison microplate reader (EnVision multimode plate reader, PerkinElmer) was used to test the level of cyclic adenosine monophosphate in the final solution (λex=320 nm, λem=665 nm & 615 nm). The EC50 (nM) value of the compound interacting with A2A adenosine receptor to stimulate the production of a level of cyclic adenosine monophosphate was calculated. The compound A2A receptor agonist titer was expressed as the EC50 (nM) value of the compound interacting with the A2A adenosine receptor to stimulate the production of a level of cyclic adenosine monophosphate.

[3] = tested on: blood-brain barrier; experiment: Animal experiment of blood-brain barrier opening (FITC-Dextran in brain of SD rats); type: in vivo
Method: Fluorescein-labeled dextran FITC-Dextran (CAS: 60842-46-8) with a molecular weight of 10,000 MW was purchased from […] (Shanghai) Chemical Industry Development Co., Ltd.; PBS solution and experimental animal SD rats were obtained from commercial sources. FITC-Dextran solution was prepared with PBS to obtain six concentration gradients (0.001, 0.01, 0.1, 1, 0.5, 10 μg/ml), and a FITC-Dextran concentration standard curve was prepared by using microplate reader (λex=490 nm, λem=520 nm); 10 mg/ml FITC-Dextran solution was separately prepared, Compound 5 was added to PBS solution to make 1 mg/ml solution, 1 ml of 10 mg/ml FITC-Dextran solution and 1 ml of 1 mg/ml Compound 5 PBS solution were taken to make an administration solution; 1 ml of 10 mg/ml FITC-Dextran solution and 1 ml of PBS solution taken to make a blank control solution; 6 SD rats were injected with 2 ml of the administration solution respectively in the tail vein, while another 6 SD rats were injected with 2 ml of the blank control solution in the tail vein; after 30 minutes, the brain tissues of all SD rats were taken out, homogenized and centrifuged at 10,000 rpm for 15 minutes, and the supernatants were taken for testing; and a microplate reader (λex=490 nm, λem=520 nm) was used for the fluorescence detection of the solutions to be tested. […]

Ki [1] [nM]	hA2AAR agonist function (in words) ([2]; conclusion from cAMP test)	EC50 ([2]; hADORA2A-HEK293 cells, 300 cells/well, stimulation of cyclic adenosine monophosphate) [nM]	melting point [°C]	Structure (SMILES)	FITC-Dextran concentration in the brain of SD rats ([3]; tail vein injection of 2 ml (10 mg/ml FITC-Dextran 10,000 MW + 1 mg/ml compound in PBS, 1:1), brain homogenate supernatant after 30 minutes, average of 6 rats, blank control 0.021) [µg/mL]	Opening of the blood-brain barrier (in words) ([3]; SD rats, FITC-Dextran co-administered by tail vein, 30 minutes)
13.8	hA2AAR agonists	18.6	206	OC[C@H]1O[C@@H](n2cnc3c(N/N=C/c4ccc(OCc5ccc(F)cc5)cc4)ncnc32)[C@H](O)[C@@H]1O [Compound 7, (2R,3R,4S,5R)-2-{6-{2-{(E)-4-[(4-fluorobenzyl)oxy]benzylidene}hydrazino}9H-purin-9-yl}-5-(hydroxymethyl)tetrahydrofuran-3,4-diol]	0.057	–
353	–	–	162	OC[C@H]1O[C@@H](n2cnc3c(N/N=C/c4ccc(-c5ccc(Br)cc5)o4)ncnc32)[C@H](O)[C@@H]1O [Compound 5, (2R,3R,4S,5R)-2-{6-{2-{(E)-[5-(4-bromophenyl)furan-2-yl]methylene}hydrazino}-9H-purin-9-yl}-5-(hydroxymethyl)tetrahydrofuran-3,4-diol]	–	could open the blood-brain barrier
